Ends that are not written are not given here.
Legend:
PD-L1 = PD-L1 expression in cell lines of other cancer types (PANC-1, H1299, SK-Hep1) expressing RL peptide; type: cell-based, human; conditions: listed as RL-S249/T252D peptide
Protocol: FIGS. 12A-C. (A, B) PANC-1, H1299, and SK-Hep1 were infected with lentivirus expressing control or RB-specific shRNAs following puromycin selection. 48 hours post infection, cells were transfected with indicated construct. 24 hours after transfection, cells were harvested for western blotting (A) and RT-qPCR (B). All data were shown as mean values±SD (n=3). “ns”=not significant, *** P<0.001. (C) Western blot analysis of expression of PD-L1, RB, pRB-S249/T252, pRB-5795, and ERK2 in prostate cancer cell lines indicated.
Total RNA was isolated using TRIzol reagent (Thermo Fisher Scientific). The NanoDrop 2000 spectrophotometer (Thermo Fisher Scientific) was used to assess RNA yield and quality. RNA was reversely transcribed using Superscript reverse transcriptase (Thermo Fisher Scientific) following manufacturer's instructions. Quantitative real-time PCR was performed by mixing cDNA, gene-specific primers, and IQ SYRB Green Supermix and detected by iCycler QTX detection system (Bio-Rad). The 2-ΔCt method was used to quantitate fold changes by normalizing to GAPDH. Primers for RT-qPCR are provided Table 4.
Cells were harvested and lysed by IP buffer, and the supernatant was quantified by BCA protein quantification assay. Equal amounts of protein sample were added into 4× sample buffer and boiled for 5 minutes. […]

PTEN-CaP8 tumors = test: FACS of tumor-infiltrating immune cells in PTEN-CaP8 tumors; type: in vivo, mouse; conditions: 12 Gy
Protocol: FIGS. 6A-J. The small S249/T252 phosphorylation-mimicking polypeptide of RB blocks irradiation-induced PD-L1 expression and inhibits cancer immune evasion. (A, B) PC-3 cells were infected with lentivirus expressing control shRNA or p65-specific or shRNA. 24 hours after puromycin selection, cells were treated with or without gamma irradiation (IR) (12 Gy). 48 hours after IR treatment, cells were harvested for western blotting analysis (A) and RT-qPCR analysis (B). All data were shown as mean values±SD (n=3). * P<0.05, ** P<0.01, *** P<0.001. (C, D) PC-3 cells were treated with without gamma irradiation (12 Gy). Cells were harvested at the indicated time point for western blotting analysis (C) and RT-qPCR analysis (D). All data were shown as mean values±SD (n=3). * P<0.05, ** P<0.01, *** P<0.001. (E) Western blot analysis of WCL and co-IP samples in PC-3 cells 48 hours after treated with or without gamma irradiation (12 Gy). […] (J) The absolute number of CD45^+CD8^+ T cells, CD45^+CD4^+ T cells, and CD11b^+Gr1^+ myeloid cells of implanted PTEN-CaP8 in tumors treated with indicated agents was analyzed by FACS. […]
For flow cytometry analysis of mouse tissue samples, tumors were cut into small pieces and digested with 2 mg/mL collagenase (Sigma) in DMEM for 1 hour at 37° C. […] After incubated with antibody for 30 minutes, cells were washed with PBS and analyzed on a flow cytometer.

## RL-S249D/T252D: S249/T252 phospho-mimicking R-Linker (RL) peptide: fragment of RB-N containing 21 amino acids surrounding S249/T252, expressed SFB-tagged or by lentivirus (NGDPRDPRRGQNRSARIAKQL; also: expressed SFB-tagged (tag left off))
PD-L1
  PD-L1 expression in cell lines of other cancer types: inhibited
PTEN-CaP8 tumors
  CD11b+Gr1+ myeloid cells in tumors, agent combined with irradiation: sharp decrease
  CD45+CD8+ and CD45+CD4+ T cell infiltration in tumors, agent combined with irradiation: dramatic increase

Reference: US20210401931A1, “METHODS AND MATERIALS FOR TREATING CANCER” (Mayo Foundation for Medical Education and Research, priority 2018, published 2021)
